Results published in US20230219904A1 (SYNGENTA CROP PROTECTION AG, priority 2020, published 2023).

Experiments:
Format in all cases: in vivo
Conditions in all cases: applied at 125 g/ha, evaluated after 13 days
[1] = tested on: Ipomoea hederacea (IPOHE); assay: Post-emergence herbicidal glasshouse test (Table B1)
Experimental: (§1) Seeds of a variety of test species are sown in standard soil in pots (Lolium perenne (LOLPE), Amaranthus retoflexus (AMARE), Abutilon theophrasti (ABUTH), Setaria faberi (SETFA), Echinochloa crus-galh (ECHCG), Ipomoea hederacea (IPOHE)). After cultivation for one day (pre-emergence) or after 8 days cultivation (post-emergence) under controlled conditions in a glasshouse (at 24/16° C., day/night; 14 hours light; 65% humidity), the plants are sprayed with an aqueous spray solution derived from the formulation of the technical active ingredient in acetone/water (50:50) solution containing 0.5% Tween 20 (polyoxyethelyene sorbitan monolaurate, CAS RN 9005-64-5). Compounds are applied at 500 g/h unless otherwise indicated. The test plants are then grown in a glasshouse under controlled conditions in a glasshouse (at 24/16° C., day/night; 14 hours light; 65% humidity) and watered twice daily. After 13 days for pre and post-emergence, the test is evaluated for the percentage damage caused to the plant. The biological activities are shown in the following table on a five-point scale (5=80-100%; 4=60-79%; 3=40-59%; 2=20-39%; 1=0-19%).

[2] = tested on: Setaria faberi (SETFA); assay: as above
Experimental: as §1

[3] = tested on: Echinochloa crus-galh (ECHCG); assay: as above
Experimental: as §1

[4] = tested on: Amaranthus retoflexus (AMARE); assay: as above
Experimental: as §1

[5] = tested on: Ipomoea hederacea (IPOHE); assay: Pre-emergence herbicidal glasshouse test (Table B1)
Experimental: as §1

[6] = tested on: Abutilon theophrasti (ABUTH); assay: as above
Experimental: as §1

[7] = tested on: Setaria faberi (SETFA); assay: as above
Experimental: as §1

[8] = tested on: Echinochloa crus-galh (ECHCG); assay: as above
Experimental: as §1

[9] = tested on: Amaranthus retoflexus (AMARE); assay: as above
Experimental: as §1

Cc1cc(C(=O)Nc2c(OC(F)(F)F)ccc(C(=O)Nc3nnnn3C)c2Cl)nn1C [Compound 1.046]
5 (5=80-100%): POST Application IPOHE, percentage damage on five-point scale [1] | POST Application SETFA, percentage damage on five-point scale [2] | POST Application ECHCG, percentage damage on five-point scale [3] | POST Application AMARE, percentage damage on five-point scale [4] | PRE Application IPOHE, percentage damage on five-point scale [5] | PRE Application ABUTH, percentage damage on five-point scale [6] | PRE Application SETFA, percentage damage on five-point scale [7] | PRE Application ECHCG, percentage damage on five-point scale [8] | PRE Application AMARE, percentage damage on five-point scale [9]

Cc1c(C(F)F)c(C(=O)Nc2c(OC(F)F)ccc(C(=O)Nc3nnnn3C)c2Cl)nn1C [Compound 1.052]
4 (4=60-79%): POST Application IPOHE, percentage damage on five-point scale [1] | POST Application ECHCG, percentage damage on five-point scale [3] | PRE Application IPOHE, percentage damage on five-point scale [5]
5 (5=80-100%): POST Application SETFA, percentage damage on five-point scale [2] | POST Application AMARE, percentage damage on five-point scale [4] | PRE Application ABUTH, percentage damage on five-point scale [6] | PRE Application SETFA, percentage damage on five-point scale [7] | PRE Application ECHCG, percentage damage on five-point scale [8] | PRE Application AMARE, percentage damage on five-point scale [9]

Cn1nnnc1NC(=O)c1ccc(OC(F)F)c(NC(=O)c2cc(C(F)(F)F)ccn2)c1Cl [Compound 1.053]
3 (3=40-59%): POST Application ECHCG, percentage damage on five-point scale [3]
5 (5=80-100%): POST Application SETFA, percentage damage on five-point scale [2] | POST Application AMARE, percentage damage on five-point scale [4] | PRE Application ABUTH, percentage damage on five-point scale [6] | PRE Application AMARE, percentage damage on five-point scale [9]
4 (4=60-79%): POST Application IPOHE, percentage damage on five-point scale [1] | PRE Application IPOHE, percentage damage on five-point scale [5] | PRE Application SETFA, percentage damage on five-point scale [7] | PRE Application ECHCG, percentage damage on five-point scale [8]

CCOCCC(=O)Nc1c(OC(F)(F)F)ccc(C(=O)Nc2nnnn2C)c1Cl [Compound 1.057]
5 (5=80-100%): POST Application SETFA, percentage damage on five-point scale [2] | POST Application ECHCG, percentage damage on five-point scale [3] | POST Application AMARE, percentage damage on five-point scale [4] | PRE Application IPOHE, percentage damage on five-point scale [5] | PRE Application ABUTH, percentage damage on five-point scale [6] | PRE Application ECHCG, percentage damage on five-point scale [8] | PRE Application AMARE, percentage damage on five-point scale [9]
4 (4=60-79%): POST Application IPOHE, percentage damage on five-point scale [1] | PRE Application SETFA, percentage damage on five-point scale [7]

COCCCC(=O)Nc1c(OC(F)(F)F)ccc(C(=O)Nc2nnnn2C)c1Cl [Compound 1.058]
5 (5=80-100%): POST Application ECHCG, percentage damage on five-point scale [3] | PRE Application IPOHE, percentage damage on five-point scale [5] | PRE Application ABUTH, percentage damage on five-point scale [6] | PRE Application ECHCG, percentage damage on five-point scale [8] | PRE Application AMARE, percentage damage on five-point scale [9]
3 (3=40-59%): PRE Application SETFA, percentage damage on five-point scale [7]
4 (4=60-79%): POST Application IPOHE, percentage damage on five-point scale [1] | POST Application SETFA, percentage damage on five-point scale [2] | POST Application AMARE, percentage damage on five-point scale [4]

Cn1nnnc1NC(=O)c1ccc(OC(F)(F)F)c(NC(=O)C(F)F)c1Cl [Compound 1.059]
1 (1=0-19%): PRE Application SETFA, percentage damage on five-point scale [7]
3 (3=40-59%): POST Application IPOHE, percentage damage on five-point scale [1] | PRE Application IPOHE, percentage damage on five-point scale [5]
5 (5=80-100%): POST Application ECHCG, percentage damage on five-point scale [3] | POST Application AMARE, percentage damage on five-point scale [4] | PRE Application ABUTH, percentage damage on five-point scale [6] | PRE Application AMARE, percentage damage on five-point scale [9]
4 (4=60-79%): POST Application SETFA, percentage damage on five-point scale [2] | PRE Application ECHCG, percentage damage on five-point scale [8]

CCn1nnnc1NC(=O)c1ccc(OC(F)(F)F)c(NC(=O)C(C)(F)F)c1Cl [Compound 1.060]
5 (5=80-100%): POST Application SETFA, percentage damage on five-point scale [2] | POST Application AMARE, percentage damage on five-point scale [4] | PRE Application ABUTH, percentage damage on five-point scale [6] | PRE Application AMARE, percentage damage on five-point scale [9]
4 (4=60-79%): POST Application IPOHE, percentage damage on five-point scale [1] | POST Application ECHCG, percentage damage on five-point scale [3] | PRE Application SETFA, percentage damage on five-point scale [7] | PRE Application ECHCG, percentage damage on five-point scale [8]
3 (3=40-59%): PRE Application IPOHE, percentage damage on five-point scale [5]

CCn1nnnc1NC(=O)c1ccc(OC(F)(F)F)c(NC(=O)CCCOC)c1Cl [Compound 1.067]
5 (5=80-100%): POST Application SETFA, percentage damage on five-point scale [2] | POST Application ECHCG, percentage damage on five-point scale [3] | POST Application AMARE, percentage damage on five-point scale [4] | PRE Application IPOHE, percentage damage on five-point scale [5] | PRE Application ABUTH, percentage damage on five-point scale [6] | PRE Application SETFA, percentage damage on five-point scale [7] | PRE Application ECHCG, percentage damage on five-point scale [8] | PRE Application AMARE, percentage damage on five-point scale [9]
4 (4=60-79%): POST Application IPOHE, percentage damage on five-point scale [1]

CCC(COC)C(=O)Nc1c(OC(F)(F)F)ccc(C(=O)Nc2nnnn2CC)c1Cl (stereo not drawn) [Compound 1.069]
5 (5=80-100%): POST Application SETFA, percentage damage on five-point scale [2] | POST Application ECHCG, percentage damage on five-point scale [3] | PRE Application ABUTH, percentage damage on five-point scale [6] | PRE Application SETFA, percentage damage on five-point scale [7] | PRE Application ECHCG, percentage damage on five-point scale [8] | PRE Application AMARE, percentage damage on five-point scale [9]
4 (4=60-79%): POST Application IPOHE, percentage damage on five-point scale [1] | POST Application AMARE, percentage damage on five-point scale [4] | PRE Application IPOHE, percentage damage on five-point scale [5]

CCCOCC(=O)Nc1c(OC(F)(F)F)ccc(C(=O)Nc2nnnn2CC)c1Cl [Compound 1.070]
5 (5=80-100%): PRE Application ABUTH, percentage damage on five-point scale [6] | PRE Application AMARE, percentage damage on five-point scale [9]
4 (4=60-79%): POST Application IPOHE, percentage damage on five-point scale [1] | POST Application SETFA, percentage damage on five-point scale [2] | POST Application ECHCG, percentage damage on five-point scale [3] | POST Application AMARE, percentage damage on five-point scale [4] | PRE Application IPOHE, percentage damage on five-point scale [5] | PRE Application SETFA, percentage damage on five-point scale [7] | PRE Application ECHCG, percentage damage on five-point scale [8]

CCn1nnnc1NC(=O)c1ccc(OC(F)(F)F)c(NC(=O)C(C)OC)c1Cl (stereo not drawn) [Compound 1.071]
5 (5=80-100%): POST Application SETFA, percentage damage on five-point scale [2] | POST Application ECHCG, percentage damage on five-point scale [3] | PRE Application IPOHE, percentage damage on five-point scale [5] | PRE Application ABUTH, percentage damage on five-point scale [6] | PRE Application SETFA, percentage damage on five-point scale [7] | PRE Application ECHCG, percentage damage on five-point scale [8] | PRE Application AMARE, percentage damage on five-point scale [9]
4 (4=60-79%): POST Application IPOHE, percentage damage on five-point scale [1] | POST Application AMARE, percentage damage on five-point scale [4]
